Assay results published in patent US8557859B2, “Immunomodulatory compositions” (Summit (Wales) Limited, priority 2003, dated 2013).

Columns and labels:
[1] = tested on: Dendritic cells; test: Induction of IL-12 secretion in dendritic cells (ELISA); type: cell-based, BALB/c mice; settings: dendritic cells; compounds 50 μg/ml and 20 μg/ml, 24 hrs (or 48 hrs)
Protocol: BALB/c male and female mice bred and maintained at the University of Strathclyde under conventional conditions were used at 8 weeks old.
Bone marrow was obtained from the femurs of mice. The femurs were washed in 70% ethanol and placed in a clean petri dish. Dendritic cell (DC) medium (2.5% granulocyte-macrophage colony-stimulating factor (GM-CSF), 10% […] foetal calf serum, 1% L-glutamine, 1% Penicillin/Streptomycin in RPMI-1640 medium) was injected into the bone marrow of the femur by a pumping action and the cells and medium were collected. 1 ml of the cells in medium was added to a 75 cm^2 flask with 15 mls of DC medium. The flasks were then incubated at 37° C., 5% CO2 to allow DC growth and development. After 5 days an additional 10 mls of DC medium was added.
After 10 days of incubation of bone marrow with GM-CSF, the dendritic cells were harvested. This process was carried out in a tissue culture hood. The contents of the flasks were poured into centrifuge tubes to ensure collection of floating DCs. Approximately 10 mls of cooled phosphate buffered saline (PBS) was added to each empty flask, the flasks gently agitated and the contents collected. […] The collected contents of the flasks were centrifuged for 5 minutes at 200 g and the pellet resuspended in 2 mls of DC medium without GM-CSF. A cell count was then carried out.
Cells were counted using a haemocytometer. Approximately 20 μl of the resuspended cells was pipetted into the chamber of the haemocytometer, the cells were adjusted to the correct cell concentration (approx. 5×10^4, and not less than 1×10^4, per well) and then plated out for assay.
The plates were incubated overnight at 37° C. with 5% CO2 and allowed to settle (harvesting stimulates them). The next day the compounds (50 μg/ml and 20 μg/ml) and controls were added then again incubated at 37° C. with 5% CO2 for 24 hrs (or 48 hrs). Harvesting and addition of the compounds was all done in a hood. The plates were then frozen to kill the cells and once defrosted the supernatant analysed as described below.
Using an enzyme linked immunosorbent assay (ELISA) IL-12 concentration in the supernatants was measured. All reagents used in this assay were from PharMingen. A 96-well flat-bottomed ELISA plate was coated with purified rat anti-mouse IL-12 (p40/p70) MAb (Cat no. 554478) at 2 μg/ml diluted in PBS pH 9.0 at 50 μl/well. The plate was then covered in cling film and incubated at 4° C. Following incubation the plate was washed 3 times in washing buffer and dried. 200 μl of blocking buffer (10% foetal calf serum in PBS pH 7.0) was added to each well then covered in cling film and incubated at 37° C. for 45 minutes. The plate was washed 3 times and dried. Recombinant mouse Il-12 standard was added at 30 μl in duplicate wells, starting at 10 ng/ml then 5, 2.5, 1.25, 0.625, 0.31, 0.156, 0.078, 0.039, 0.020, 0.010, 0.005 ng/ml. Standards were diluted in blocking buffer. The supernatant samples were added in at 50 μl/well. The plate was then covered in cling film and incubated for 2 hours at 37° C. The plate was then washed 4 times, dried and the secondary antibody added.
Biotin labelled anti-mouse IL-12 (p40/p70) MAb (Cat no. 18482D) at 1 μg/ml (diluted in blocking buffer) was added to each well at a volume of 100 μl/well. The plate was covered in cling film and incubated at 37° C. for 1 hour. The plate was then washed 5 times, dried and the conjugate added. Streptavidin-AKP (Cat no. 13043E) at 100 μl/well was added at a dilution of 1/2000 in blocking buffer followed by incubation under cling film at 37° C. for 45 minutes.
The plate was finally washed 6 times, dried and the substrate added. pNPP (Sigma) in glycine buffer at 1 mg/ml was added at 100 μl/well. The plate was then covered in tinfoil, incubated at 37° C. and checked every 30 minutes for a colour change.
The plate was then read at 405 nm using a SPECTRAmax 190 spectrometer.

[2] = tested on: Naringinase; test: Glycosidase inhibition, Naringinase; type: biochemical, Penecillium decumbens; settings: 1 mg/ml
Protocol: (§1) All enzymes were purchased from Sigma, as were the appropriate p-nitrophenyl substrates. Assays were carried out in microtitre plates. Enzymes were assayed in 0.1 M citric acid/0.2M di-sodium hydrogen phosphate (McIlvaine) buffers at the optimum pH for the enzyme. All assays were carried out at 20° C. For screening assays the incubation assay consisted of 10 μl of enzyme solution, 10 μl of inhibitor solution (made up in water) and 50 μl of the appropriate 5 mM p-nitrophenyl substrate (3.57 mM final conc.) made up in McIlvaine buffer at the optimum pH for the enzyme.
(§2) The reactions were stopped with 0.4M glycine (pH 10.4) during the exponential phase of the reaction, which was determined at the beginning of the assay using blanks with water, which were incubated for a range of time periods to measure the reaction rate using 5 mM substrate solution. Endpoint absorbances were read at 405 nm with a Biorad microtitre plate reader (Benchmark). Water was substituted for the inhibitors in the blanks.

[3] = tested on: B16-F10 tumour cells; test: Control of lung metastasis in mice; type: in vivo, Mice (C57/bl6); settings: 50 mg/kg s/c on days 2 and 4; lungs on day 14
Protocol: Mice (C57/bl6 under i/p ketamine anaesthesia) were challenged i/v (tail vein) with 5×10^4 B16-F10 tumour cells in a final volume of 100 μl per mouse on day 0. Test compounds (50 mg/kg in 200 μl sterile non-pyrogenic saline) were administered s/c (right flank) on days 2 and 4. On day 14 the mice were sacrifices and the lungs dissected and stained in Indian ink solution (150 ml bidistilled water, 30 ml India Ink, 4 drops NH4OH) for 10 minutes then fixed for at least 24 hr in Fakete's solution (90 ml 37% formaldehyde, 900 ml 70% EtOH and 45 ml glacial acetic acid). The metastases in the stained and fixed lungs could then be visualized, counted and photographed.

[4] = tested on: β-D-glucosidase; test: Glycosidase inhibition, β-D-glucosidase; type: biochemical, Almonds (Prunus sp.)
Protocol: as §1, §2

[5] = target: T1, rabbit small intestine sucrase (Oryctolagus cuniculus, UniProt P07768); test: Inhibition of rabbit small intestine sucrase; type: biochemical; settings: at a concentration of 700 μM
T1 construct: from tissue; host or cells: rabbit small intestine
T1 sequence (P07768 whole entry): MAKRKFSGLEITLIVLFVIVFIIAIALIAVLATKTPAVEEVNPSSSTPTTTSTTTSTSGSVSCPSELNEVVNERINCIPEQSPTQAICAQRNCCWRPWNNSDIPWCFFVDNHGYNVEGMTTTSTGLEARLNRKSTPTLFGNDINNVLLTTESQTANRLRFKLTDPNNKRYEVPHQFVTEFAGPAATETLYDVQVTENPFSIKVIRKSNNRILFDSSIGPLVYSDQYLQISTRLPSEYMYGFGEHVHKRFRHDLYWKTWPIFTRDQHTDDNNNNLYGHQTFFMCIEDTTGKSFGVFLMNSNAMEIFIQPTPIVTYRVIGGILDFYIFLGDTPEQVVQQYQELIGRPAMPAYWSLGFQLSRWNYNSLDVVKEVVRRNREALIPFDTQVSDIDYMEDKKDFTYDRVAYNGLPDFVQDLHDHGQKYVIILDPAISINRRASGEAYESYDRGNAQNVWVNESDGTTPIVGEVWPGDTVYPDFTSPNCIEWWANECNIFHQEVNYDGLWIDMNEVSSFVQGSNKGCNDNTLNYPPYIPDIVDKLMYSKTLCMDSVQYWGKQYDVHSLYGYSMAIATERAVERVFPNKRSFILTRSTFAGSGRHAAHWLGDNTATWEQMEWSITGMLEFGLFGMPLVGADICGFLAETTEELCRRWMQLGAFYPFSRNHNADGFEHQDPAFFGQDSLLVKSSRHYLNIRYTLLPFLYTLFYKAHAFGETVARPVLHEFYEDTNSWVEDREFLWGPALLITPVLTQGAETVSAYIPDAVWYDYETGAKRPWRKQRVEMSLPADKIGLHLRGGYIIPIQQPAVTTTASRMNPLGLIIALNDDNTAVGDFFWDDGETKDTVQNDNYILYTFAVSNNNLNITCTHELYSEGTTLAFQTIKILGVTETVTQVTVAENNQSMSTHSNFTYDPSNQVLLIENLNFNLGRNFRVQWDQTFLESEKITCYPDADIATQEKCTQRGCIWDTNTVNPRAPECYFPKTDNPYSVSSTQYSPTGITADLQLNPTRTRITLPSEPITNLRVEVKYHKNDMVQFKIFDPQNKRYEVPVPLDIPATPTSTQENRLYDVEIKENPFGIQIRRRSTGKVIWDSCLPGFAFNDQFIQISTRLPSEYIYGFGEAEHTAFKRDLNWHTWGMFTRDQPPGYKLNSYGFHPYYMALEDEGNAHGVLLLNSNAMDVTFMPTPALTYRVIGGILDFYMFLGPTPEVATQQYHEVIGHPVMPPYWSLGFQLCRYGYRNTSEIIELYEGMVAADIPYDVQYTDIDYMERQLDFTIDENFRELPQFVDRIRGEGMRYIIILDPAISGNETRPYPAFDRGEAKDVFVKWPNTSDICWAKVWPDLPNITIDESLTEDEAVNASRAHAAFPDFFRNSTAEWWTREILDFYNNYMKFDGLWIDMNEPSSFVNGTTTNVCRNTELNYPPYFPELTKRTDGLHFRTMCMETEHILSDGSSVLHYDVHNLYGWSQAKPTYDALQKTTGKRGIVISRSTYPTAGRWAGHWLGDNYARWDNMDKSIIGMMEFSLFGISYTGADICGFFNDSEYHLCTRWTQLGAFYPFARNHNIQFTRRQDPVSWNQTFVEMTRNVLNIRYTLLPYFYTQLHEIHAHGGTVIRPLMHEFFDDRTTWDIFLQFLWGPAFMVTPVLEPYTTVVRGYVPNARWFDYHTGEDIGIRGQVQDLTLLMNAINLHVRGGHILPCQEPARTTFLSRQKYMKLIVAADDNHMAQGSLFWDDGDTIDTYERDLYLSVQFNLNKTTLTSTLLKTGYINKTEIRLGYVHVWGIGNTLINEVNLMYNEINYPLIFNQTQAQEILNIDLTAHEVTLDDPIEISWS

Compound: OC[C@@H]1[C@@H](O)[C@H](O)[C@H]2[C@H](O)[C@@H](O)CN21 [casuarine (8), (1R,2R,3R,6S,7S,7aR)-3-(hydroxymethyl)-1,2,6,7-tetrahydroxypyrrolizidine]
- IL-12 RELEASE [1]: Yes
- % inhibition Naringinase [2]: −2%
- Metastatic morphology [3]: Metastasis restricted to apical tip of lung
- % inhibition glucosidase ([4]; 1 mg/ml): 0%
- inhibition of almond 6-D-glucosidase ([4]; at 800 μM): not being inhibitory
- inhibition of rabbit small intestine sucrase [5]: inhibited
